BigSolDB 2.1

Cc1cnc(N)s1
Conditions | solubility (mole fraction)
in 1,4-dioxane, 278.15 K | 0.0399
in 1,4-dioxane, 280.65 K | 0.0431
in 1,4-dioxane, 283.15 K | 0.0474
in 1,4-dioxane, 285.65 K | 0.0517
in 1,4-dioxane, 288.15 K | 0.0563
in 1,4-dioxane, 290.65 K | 0.0618
in 1,4-dioxane, 293.15 K | 0.0673
in 1,4-dioxane, 295.65 K | 0.0737
in 1,4-dioxane, 298.15 K | 0.0806
in 1,4-dioxane, 300.65 K | 0.0881
in 1,4-dioxane, 303.15 K | 0.0961
in 1,4-dioxane, 305.65 K | 0.105
in 1,4-dioxane, 308.15 K | 0.115
in 1,4-dioxane, 310.65 K | 0.126
in 1,4-dioxane, 313.15 K | 0.138
in 2-butanone, 278.15 K | 0.0365
in 2-butanone, 280.65 K | 0.0405
in 2-butanone, 283.15 K | 0.0448
in 2-butanone, 285.65 K | 0.049
in 2-butanone, 288.15 K | 0.0535
in 2-butanone, 290.65 K | 0.0585
in 2-butanone, 293.15 K | 0.064
in 2-butanone, 295.65 K | 0.0705
in 2-butanone, 298.15 K | 0.0776
in 2-butanone, 300.65 K | 0.0849
in 2-butanone, 303.15 K | 0.093
in 2-butanone, 305.65 K | 0.101
in 2-butanone, 308.15 K | 0.111
in 2-butanone, 310.65 K | 0.121
in 2-butanone, 313.15 K | 0.133
in acetone, 278.15 K | 0.0493
in acetone, 280.65 K | 0.0535
in acetone, 283.15 K | 0.0587
in acetone, 285.65 K | 0.0637
in acetone, 288.15 K | 0.0692
in acetone, 290.65 K | 0.0756
in acetone, 293.15 K | 0.0825
in acetone, 295.65 K | 0.09
in acetone, 298.15 K | 0.0979
in acetone, 300.65 K | 0.107
in acetone, 303.15 K | 0.116
in acetone, 305.65 K | 0.126
in acetone, 308.15 K | 0.137
in acetone, 310.65 K | 0.15
in acetone, 313.15 K | 0.163
in acetonitrile, 278.15 K | 0.0284
in acetonitrile, 280.65 K | 0.031
in acetonitrile, 283.15 K | 0.0341
in acetonitrile, 285.65 K | 0.0372
in acetonitrile, 288.15 K | 0.0406
in acetonitrile, 290.65 K | 0.0446
in acetonitrile, 293.15 K | 0.0489
in acetonitrile, 295.65 K | 0.0536
in acetonitrile, 298.15 K | 0.0586
in acetonitrile, 300.65 K | 0.0638
in acetonitrile, 303.15 K | 0.0699
in acetonitrile, 305.65 K | 0.0763
in acetonitrile, 308.15 K | 0.0838
in acetonitrile, 310.65 K | 0.0921
in acetonitrile, 313.15 K | 0.1
in cyclohexane, 283.15 K | 0.000429
in cyclohexane, 285.65 K | 0.000491
in cyclohexane, 288.15 K | 0.000566
in cyclohexane, 290.65 K | 0.000645
in cyclohexane, 293.15 K | 0.000736
in cyclohexane, 295.65 K | 0.000839
in cyclohexane, 298.15 K | 0.000953
in cyclohexane, 300.65 K | 0.00108
in cyclohexane, 303.15 K | 0.00123
in cyclohexane, 305.65 K | 0.00138
in cyclohexane, 308.15 K | 0.00156
in cyclohexane, 310.65 K | 0.00173
in cyclohexane, 313.15 K | 0.00194
in ethanol, 278.15 K | 0.0486
in ethanol, 280.65 K | 0.0529
in ethanol, 283.15 K | 0.0574
in ethanol, 285.65 K | 0.0629
in ethanol, 288.15 K | 0.0677
in ethanol, 290.65 K | 0.0736
in ethanol, 293.15 K | 0.0799
in ethanol, 295.65 K | 0.0869
in ethanol, 298.15 K | 0.095
in ethanol, 300.65 K | 0.103
in ethanol, 303.15 K | 0.112
in ethanol, 305.65 K | 0.122
in ethanol, 308.15 K | 0.133
in ethanol, 310.65 K | 0.144
in ethanol, 313.15 K | 0.157
in ethyl acetate, 278.15 K | 0.0523
in ethyl acetate, 280.65 K | 0.0567
in ethyl acetate, 283.15 K | 0.0614
in ethyl acetate, 285.65 K | 0.067
in ethyl acetate, 288.15 K | 0.0726
in ethyl acetate, 290.65 K | 0.0791
in ethyl acetate, 293.15 K | 0.086
in ethyl acetate, 295.65 K | 0.0934
in ethyl acetate, 298.15 K | 0.101
in ethyl acetate, 300.65 K | 0.109
in ethyl acetate, 303.15 K | 0.118
in ethyl acetate, 305.65 K | 0.129
in ethyl acetate, 308.15 K | 0.14
in ethyl acetate, 310.65 K | 0.152
in ethyl acetate, 313.15 K | 0.164
in isopropanol, 278.15 K | 0.0345
in isopropanol, 280.65 K | 0.0381
in isopropanol, 283.15 K | 0.0415
in isopropanol, 285.65 K | 0.0452
in isopropanol, 288.15 K | 0.0497
in isopropanol, 290.65 K | 0.0546
in isopropanol, 293.15 K | 0.0594
in isopropanol, 295.65 K | 0.0647
in isopropanol, 298.15 K | 0.0709
in isopropanol, 300.65 K | 0.0775
in isopropanol, 303.15 K | 0.085
in isopropanol, 305.65 K | 0.0927
in isopropanol, 308.15 K | 0.102
in isopropanol, 310.65 K | 0.112
in isopropanol, 313.15 K | 0.121
in methanol, 278.15 K | 0.0594
in methanol, 280.65 K | 0.0639
in methanol, 283.15 K | 0.0686
in methanol, 285.65 K | 0.0742
in methanol, 288.15 K | 0.0796
in methanol, 290.65 K | 0.086
in methanol, 293.15 K | 0.0927
in methanol, 295.65 K | 0.0999
in methanol, 298.15 K | 0.107
in methanol, 300.65 K | 0.116
in methanol, 303.15 K | 0.125
in methanol, 305.65 K | 0.135
in methanol, 308.15 K | 0.146
in methanol, 310.65 K | 0.157
in methanol, 313.15 K | 0.169
in n-propanol, 278.15 K | 0.037
in n-propanol, 280.65 K | 0.0404
in n-propanol, 283.15 K | 0.0441
in n-propanol, 285.65 K | 0.0482
in n-propanol, 288.15 K | 0.0526
in n-propanol, 290.65 K | 0.0575
in n-propanol, 293.15 K | 0.0628
in n-propanol, 295.65 K | 0.0686
in n-propanol, 298.15 K | 0.075
in n-propanol, 300.65 K | 0.082
in n-propanol, 303.15 K | 0.0898
in n-propanol, 305.65 K | 0.098
in n-propanol, 308.15 K | 0.107
in n-propanol, 310.65 K | 0.117
in n-propanol, 313.15 K | 0.128
in toluene, 278.15 K | 0.0109
in toluene, 280.65 K | 0.0121
in toluene, 283.15 K | 0.0136
in toluene, 285.65 K | 0.0149
in toluene, 288.15 K | 0.0167
in toluene, 290.65 K | 0.0185
in toluene, 293.15 K | 0.0205
in toluene, 295.65 K | 0.0225
in toluene, 298.15 K | 0.0251
in toluene, 300.65 K | 0.028
in toluene, 303.15 K | 0.0312
in toluene, 305.65 K | 0.0348
in toluene, 308.15 K | 0.039
in toluene, 310.65 K | 0.0438
in toluene, 313.15 K | 0.0493
